Data taken from patent US20220202770A1, “COMPOSITION FOR TREATING HEPATITIS B, AND METHOD FOR EVALUATING REPLICATION ACTIVITY OF HEPATITIS B VIRUS” (priority 2016, published 2022).

How the values were obtained:
[1] = target: HBV/C-Pol (hepatitis B virus polymerase, Genotype C), wild type (hepatitis B virus, Genotype C) (UniProt Q9YZR5); assay: cell-based or functional assay
[2] = test system: HBV DNA replication (reverse transcription of reporter pgRNA by wild type HBV-Pol); assay: Evaluation method for HBV replication activity: reporter-minus strand DNA quantified by real time PCR in transfected HeLa cells; format: cell-based, hepatitis B virus (genotype C); HeLa cells; details: 24 hours; for suppression of reverse transcription by wild-type HBV-Pol: Example 9, FIG. 12B (a, b), 0.020-5.000 μM
Procedure: To HeLa cells, the evaluation vector for HBV replication activity, HBV-P expression vector, HBc expression vector and HBx expression vector were introduced in various combinations (Introduction step). Combination patterns are as described in FIG. 4A. Transfection of the HeLa cells was carried out by electroporation. DNA (10 μg) was introduced into about 1×10^6 HeLa cells in the conditions of 125 V/2.5 ms plus length by an electroporator, Nepa 21 (Nepa Gene Co., Ltd.). The ratio of HBc expression vector:HBV-P expression vector:HBx expression vector was set to be 9:3:1. If there was an expression vector not to be introduced depending on the combination, the same ratio of an empty vector (pCI) as that of the expression vector not to be introduced was introduced. The ratio of the evaluation vector for HBV replication activity and the total of other expression vectors was set to be 1: 1 (5 μg: 5 μg). If there was an expression vector not to be introduced, pCI was introduced at the ratio corresponding to that of the expression vector.
After transfection, the HeLa cells were cultured in DMEM supplemented with 2 mL of 10% FBS in the presence of 5% CO2 at 37° C. for 48 hours (Culturing step).
After culture, DNA was extracted from the HeLa cells by means of DNeasy Mini (Qiagen). As the primer, a primer pair of a forward primer consisting of the nucleotide sequence represented by SEQ ID NO: 38 and a reverse primer consisting of the nucleotide sequence represented by SEQ ID NO: 39, was used. The forward primer has the two nucleotides at the 3′ terminal, which match the two nucleotides at the 5′ terminal of the exon present on the downstream side; however, fail to match two nucleotides at the 5′ terminal of the intron. Accordingly, the forward primer functions as a primer only in the case where reporter-minus strand DNA having a reporter sequence from which the intron was removed is present, and amplification can be made by using the reporter-minus strand DNA as a template to provide a DNA fragment of 131 nucleotides.
In accordance with the evaluation method for HBV replication activity described in Example 1, an evaluation vector for HBV replication activity, HBV-P expression vector, HBc expression vector and HBx expression vector were introduced in HeLa cells. […]
To HeLa cells, an evaluation vector for HBV replication activity, and expression vectors of HBV-P, HVc and HBx were introduced in the ratio described in the evaluation method for HBV replication activity described in Example 2. […] The absorbance of the culture solution was measured at 450 nm/650 nm to evaluate the survival rates of the cells. […]

[3] = test system: Lamivudine-resistance mutant HBV-Pol (HBV-Pol-LAMr, M204I); assay: Evaluation method for HBV replication activity with Lamivudine-resistance mutant HBV-Pol; format: cell-based, hepatitis B virus; HeLa cells; details: Example 9, FIG. 12B (c, d); HeLa cells, 0.020-5.000 μM, 24 hours
Description: (§1) As described in the section of “background art”, long-term administration of conventional anti-HBV drugs made of a nucleotide/nucleoside analog such as Entecavir and Lamivudine causes the emergence of drug-resistant HBV. As a cause of the emergence of such a drug-resistant HBV, a mutation within the region of reverse transcription enzyme (RT) of HBV-Pol has been reported.
(§2) Then, mutant HBV-Pol expression vectors having M204I mutation, and L180M/T184G/S202I/M204I mutations respectively introduced therein were prepared in accordance with a conventional method and designated as HBV-P-LAMr, and HBV-P-ETVr, respectively. As the MAPKK inhibitor, Hypothemycin was used. As a negative control against a drug-resistant HBV, an existing anti-HBV drug, Entecavir, was used.
(§3) HBV replication evaluation was carried out in the same manner as in the evaluation method for HBV replication activity described in Example 1. The evaluation vector for HBV replication activity, and expression vectors of a wild type HBV-P or mutant HBV-P (HBV-P-LAMr or HBV-P-ETVr), HBc and HBx were introduced in the same ratio as in Example 2; at the same time, Hypothemycin or Entecavir was introduced in amounts of 0.000 μM, 0.020 μM, 0.039 μM, 0.078 μM, 0.156 μM, 0.313 μM, 0.625 μM, 1.250 μM, 2.500 μM or 5.000 μM. Culture was carried out under a 5% CO2 atmosphere at 37° C. […]

[4] = test system: Entecavir-resistance mutant HBV-Pol (HBV-Pol-ETVr, L180M/T184G/S202I/M204I); assay: Evaluation method for HBV replication activity with Entecavir-resistance mutant HBV-Pol; format: cell-based, hepatitis B virus; HeLa cells; details: Example 9, FIG. 12B (e, f); HeLa cells, 0.020-5.000 μM, 24 hours
Description: as §1, §2, §3

[5] = test system: genomic DNA (G3PDH exon 8) of HeLa cells; assay: Amount of genomic DNA (G3PDH exon 8) in HeLa cells by real time PCR; format: cell-based, human (HeLa cells); details: Example 3, FIG. 6B, serially diluted
Procedure: (§4) To HeLa cells, an evaluation vector for HBV replication activity, and expression vectors of HBV-P, HVc and HBx were introduced in the ratio described in the evaluation method for HBV replication activity described in Example 2. Thereafter, the HeLa cells were cultured in a 96-well plate containing a culture solution supplemented with a 0.25% n-butanol extract of a filamentous fungus culture, under 5% CO2 atmosphere at 37° C. Twenty-four hours later, WST-8 (Nacalai) was added to the culture solution, which was further subjected to culture for 2 hours. The absorbance of the culture solution was measured at 450 nm/650 nm to evaluate the survival rates of the cells.
(§5) After the culture solution was removed, DNA in the cell cytoplasm was recovered by a treatment with 50 μl of Buffer A (10 mM HEPES, 1.5 mM MgCl2, 10 mM KCl, 0.5 mM DTT, 0.05% NP40, pH7.9) and subjected to real time PCR performed in accordance with the method of Example 1. As the result of primary screening of 800 extracts (200 strains, 4 culture solutions), 162 extracts inhibiting 25% or more of HBV DNA replication (reverse transcription) and having a cytotoxic activity of 80% or less were selected as a primary hit.
(§6) Subsequently, 162 extracts primarily hit were serially diluted and added to an evaluation system. […]

[6] = test system: mitochondrial DNA (ND5) of HeLa cells; assay: Amount of mitochondrial DNA (ND5) in HeLa cells by real time PCR; format: cell-based, human (HeLa cells); details: Example 3, FIG. 6C, serially diluted
Procedure: as §4, §5, §6

Compound | HBV replication (reporter-minus strand DNA by real time PCR) in HeLa cells under forced expression of MEK1 [1] | amount of the reporter-minus strand DNA (replication of HBV DNA) ([2]; Example 2, FIG. 5, 0.04-5.00 μM/well) | suppression of reverse transcription by wild-type HBV-Pol [2] | suppression of reverse transcription activity of Lamivudine-resistance mutant HBV-Pol [3] | suppression of reverse transcription activity of Entecavir-resistance mutant HBV-Pol [4] | replication of HBV DNA ([2]; Example 3, FIG. 6A, serially diluted) | amount of genomic DNA (G3PDH exon 8) [5] | amount of mitochondrial DNA (ND5) [6]
constitutively active human MEK1 (S218E/S222E) (from UniProt Q02750 1-393) (enzyme) | 10 fold |  |  |  |  |  |  | 
C=C1[C@H](CO)[C@@H](O)C[C@@H]1n1cnc2c(=O)[nH]c(N)nc21 [Entecavir] |  | decreased in an Entecavir-concentration depending manner | suppressed reverse transcription by a wild-type HBV-Pol in a concentration-dependent manner | weak | not substantially suppressed |  |  | 
Hypothemycin |  |  | all in a concentration-dependent manner | all in a concentration-dependent manner | all in a concentration-dependent manner | inhibited replication of HBV DNA in a concentration-dependent manner | not affected | not affected
